Target: T1, delF508-CFTR (Homo sapiens, UniProt P13569, DEL508-508)
T1 construct: Unaltered CFBE41o− cells were used as the model; endogenous in cells; host or cells: CFBE41o- human CF bronchial epithelial cells (delF508 homozygous, not overexpressing)
Experiment: SPQ halide-sensitive fluorescence dye profiling assay (rescue of halide efflux)
Assay type: cell-based
Conditions: for EC50 / EC50 (μM): SPQ assay, 8-point concentration-response curve, CFBE41o− cells; for Emax: VX-809 at 3 μM treated as 100% efficacy; for Efficacy Comparison to 3 μM VX-809: compared to VX-809 at 3 μM; for potency and efficacy versus VX-809 in SPQ profiling: compounds advanced to further profiling
Description: The method of profiling can include detecting the rescue of halide efflux from a cell. The step of detecting a rescue of halide efflux from the cell can be monitored using the halide quenched dye 6-methoxy-N-(3-sulfopropyl)-quinolinium (SPQ, Molecular Probes Inc., Eugene, Oreg.). In this method, cells are treated with a compound as described herein for a period of time (e.g., 48 hours). The rescue or correction of halide efflux is then detected using the SPQ assay with the halide dye. […] Optionally, the halide efflux is chloride efflux. The method of screening can further comprise performing the method with multiple concentrations of the compound.
The compounds were initially subjected to the SPQ halide-sensitive fluorescence dye profiling assay for rescue or correction of membrane chloride ion permeability or transport with an 8-point concentration-response curve. The EC50 values for the compounds described herein were determined and compared to the efficacy of the industry standard Vertex 809 (VX-809; Vertex Pharmaceuticals, Cambridge, Mass.) at 3 μM, which is the maximally effective profiling dose for VX-809 (Table 1). The VX-809 dosage at 3 μM was treated as having 100% efficacy in the comparison.
To perform the SPQ high throughput screening assay, CFBE41o− cells were seeded into 96-well microtiter plates and were loaded with the fluorescent halide-sensitive dye, SPQ, in serum-containing culture medium. Certain wells were loaded with known positive control corrector molecules, including VX-809. The test compounds were loaded into wells and were tested in triplicate wells at a 10 μM dose and incubated over 48 hours at room temperature. During the 48 hour period, SPQ was absorbed. Plates were washed in a sodium chloride (NaCl) based Ringer and read once over two minutes to set the baseline SPQ fluorescence activity. Then, NaCl was replaced by sodium nitrate (NaNO3) based Ringer. The plates were read twice over four minutes. The primary high throughput screen (HTS) data were analyzed to detect any function of rescued delF508-CFTR under basal conditions. The plate was read up to two times to complete the SPQ HTS assay.

T1 sequence (P13569 with tags, fused parts or gaps DEL508-508): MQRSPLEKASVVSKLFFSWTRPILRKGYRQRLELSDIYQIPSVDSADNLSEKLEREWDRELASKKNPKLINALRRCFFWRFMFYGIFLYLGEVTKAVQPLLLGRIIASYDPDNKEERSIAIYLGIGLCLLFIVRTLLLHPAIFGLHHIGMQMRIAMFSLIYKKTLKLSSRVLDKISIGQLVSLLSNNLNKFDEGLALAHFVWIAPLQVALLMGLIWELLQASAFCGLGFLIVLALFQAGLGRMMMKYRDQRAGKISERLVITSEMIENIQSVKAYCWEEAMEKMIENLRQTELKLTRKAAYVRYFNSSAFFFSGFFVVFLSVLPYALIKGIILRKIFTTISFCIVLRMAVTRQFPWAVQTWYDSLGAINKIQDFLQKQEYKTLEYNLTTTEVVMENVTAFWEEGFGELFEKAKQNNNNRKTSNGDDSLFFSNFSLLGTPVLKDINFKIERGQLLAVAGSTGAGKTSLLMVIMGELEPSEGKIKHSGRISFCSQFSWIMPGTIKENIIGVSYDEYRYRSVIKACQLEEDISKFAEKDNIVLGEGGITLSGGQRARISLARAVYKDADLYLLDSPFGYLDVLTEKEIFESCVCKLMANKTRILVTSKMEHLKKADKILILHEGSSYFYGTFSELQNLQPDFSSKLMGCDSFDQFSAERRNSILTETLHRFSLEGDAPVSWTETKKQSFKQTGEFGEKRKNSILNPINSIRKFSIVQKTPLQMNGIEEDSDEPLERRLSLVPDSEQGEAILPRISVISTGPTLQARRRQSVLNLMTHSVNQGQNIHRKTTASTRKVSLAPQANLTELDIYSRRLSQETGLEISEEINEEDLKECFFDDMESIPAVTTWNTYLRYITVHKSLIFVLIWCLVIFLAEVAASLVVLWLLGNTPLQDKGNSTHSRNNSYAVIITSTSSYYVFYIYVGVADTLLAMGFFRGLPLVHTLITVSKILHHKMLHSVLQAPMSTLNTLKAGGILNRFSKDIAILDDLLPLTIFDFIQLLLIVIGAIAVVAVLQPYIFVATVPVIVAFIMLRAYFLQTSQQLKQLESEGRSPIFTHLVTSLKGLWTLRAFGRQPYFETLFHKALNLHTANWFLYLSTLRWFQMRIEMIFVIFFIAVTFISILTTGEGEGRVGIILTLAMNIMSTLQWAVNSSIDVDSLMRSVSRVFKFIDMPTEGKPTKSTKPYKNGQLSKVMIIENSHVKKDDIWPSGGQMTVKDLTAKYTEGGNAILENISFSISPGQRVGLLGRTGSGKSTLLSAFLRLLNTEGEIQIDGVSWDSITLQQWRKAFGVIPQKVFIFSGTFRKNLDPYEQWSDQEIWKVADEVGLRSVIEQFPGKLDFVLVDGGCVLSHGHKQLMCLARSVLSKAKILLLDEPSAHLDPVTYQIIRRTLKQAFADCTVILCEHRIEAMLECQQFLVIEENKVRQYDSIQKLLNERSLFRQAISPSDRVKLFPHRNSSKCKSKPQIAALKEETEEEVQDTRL

Compound | EC50 | Emax | Efficacy Comparison to 3 μM VX-809 | EC50 (μM) | potency and efficacy versus VX-809 in SPQ profiling
Cc1nn2c(C)c(C(=O)O)nnc2c1-c1ccc(OC(C)(C)C)cc1 [Compound C-56] | 11.6 µM | 20% | Less than VX-809 | – | –
Cc1nn2c(C)c(C(=O)N(C)C)nnc2c1-c1ccc(Cl)c(Cl)c1 [Compound C-31] | – | 0% | – | No effect | –
COc1ccc(-c2c(C)nn3c(C)c(C(=O)O)nnc23)cc1OC [Compound C-6] | 9.9 µM | 170% | 3-fold greater than VX-809 | – | –
CNC(=O)c1nnc2c(-c3ccc(Cl)c(Cl)c3)c(C)nn2c1C [Compound C-30] | 26.3 µM | 50% | Less than VX-809 | – | –
Cc1nn2c(C)c(C(=O)O)nnc2c1-c1ccc(F)c(F)c1 [Compound C-23] | – | 110% | Equivalent to VX-809 | – | –
CCS(=O)(=O)N(c1nnc2c(-c3ccc(Cl)c(Cl)c3)c(C)nn2c1C)S(=O)(=O)CC [Compound C-71.1] | – | 0% | – | – | –
Cc1nn2c(C)c(C(=O)C(=O)O)nnc2c1-c1ccc(Cl)c(Cl)c1 [Compound C-32] | 6 µM | 160% | 2.5-fold greater than VX-809 | – | –
CCOC(=O)c1ccc2c(-c3ccc(Cl)c(Cl)c3)noc2n1 [Compound C-68.1] | – | 20% | – | – | –
Cc1nn2c(C)c(C(=O)O)nnc2c1-c1cc(Cl)cc(Cl)c1 [Compound C-22] | 1.3 µM | 130% | 12-fold greater than VX-809 | – | superior potency and efficacy to VX-809
Cc1nn2cc(C(=O)O)nnc2c1-c1ccc(Cl)cc1 [Compound C-3] | 11.5 µM | 200% | Equivalent to VX-809 | – | –
Cc1c(C(=O)O)nnc2c(-c3ccccc3)c(-c3ccccc3)nn12 [Compound C-11] | – | 0% | – | No effect | –
COc1ccc(Cn2nc(-c3ccc(Cl)c(Cl)c3)c3ccc(C(=O)O)nc32)cc1 [Compound C-66.2] | 11 µM | 100% | – | – | –
Cc1cnc(-c2nnc3c(-c4ccc(Cl)c(Cl)c4)c(C)nn3c2C)o1 [Compound C-41] | – | 0% | – | No effect | –
CCOc1ccc(-c2c(C)nn3c(C)c(C(=O)O)nnc23)cc1 [Compound C-7] | 7 µM | 220% | 3-fold greater than VX-809 | – | –
CCOC(=O)c1nnc2c(-c3ccc(Cl)c(Cl)c3)c(C)nn2c1C(=O)OCC [Compound C-26.1] | – | 0% | – | No effect (toxic | –
Cc1nnc(-c2nnc3c(-c4ccc(Cl)c(Cl)c4)c(C)nn3c2C)o1 [Compound C-42] | – | 5% | – | No effect | –
CCOC(=O)c1cn2ncc(-c3ccc(Cl)cc3)c2nn1 [Compound C-14] | – | 0% | – | No effect | –
COC(=O)C(=O)c1nnc2c(-c3ccc(Cl)c(Cl)c3)c(C)nn2c1C [Compound C-32.1] | – | 5% | – | No effect (toxic | –
Cc1nn2c(C)c(C(=O)NS(C)(=O)=O)nnc2c1-c1ccc(Cl)c(Cl)c1 [Compound C-36] | 4.8 µM | 50% | Equivalent to VX-809 | – | –
CCCOc1ccc(-c2c(C)nn3c(C)c(C(=O)OCC)nnc23)cc1 [Compound C-18] | 3.1 µM | 20% | Less than VX-809 | – | –
Cc1nn2c(C)c(C(=O)O)nnc2c1-c1ccc2c(c1)OCCO2 [Compound C-58] | – | 100% | – | – | –
Cc1nn2c(C)c(CS(C)(=O)=O)nnc2c1-c1ccc(Cl)c(Cl)c1 [Compound C-70] | 3.7 µM | 110% | 2-fold greater than VX-809 | – | –
Cc1nn2c(C)c(C(=O)OC(C)C)nnc2c1-c1ccc(Cl)cc1 [Compound C-21] | 1.1 µM | 50% | 2.5-fold greater than VX-809 | – | –
Cc1nn2c(C)c(C(=O)O)nnc2c1-c1ccc(OC(C)C)cc1 [Compound C-55] | 0.66 µM | 100% | 10-fold greater than VX-809 | – | superior potency and efficacy to VX-809
Cc1nn2c(C)c(C(=O)O)nnc2c1-c1ccc(Cl)cc1 [Compound C-1] | 1.9 µM | 200% | – | – | –
Cc1nn2c(N)c(C(=O)O)nnc2c1-c1ccc(Cl)c(Cl)c1 [Compound C-25] | 0.83 µM | 100% | 10-fold greater than VX-809 | – | superior potency and efficacy to VX-809
CCOC(=O)c1c(C(=O)OC(C)(C)C)nnc2c(-c3ccc(Cl)c(Cl)c3)c(C)nn12 [Compound C-26.2] | – | 0% | – | No effect (toxic | –
Cc1nn2c(C)c(C(=O)O)nnc2c1-c1ccc2c(c1)OCO2 [Compound C-57] | 12 µM | 20% | – | – | –
CCOC(=O)c1nnc2c(-c3ccc(OC)c(OC)c3)c(C)nn2c1C [Compound C-16] | 2.2 µM | 80% | 2-fold greater than VX-809 | – | –
CCS(=O)(=O)Cc1nnc2c(-c3ccc(Cl)c(Cl)c3)c(C)nn2c1C [Compound C-71] | 6.9 µM | 130% | Equivalent to VX-809 | – | –

Second part, the compound after the results:

EC50 | Emax | Efficacy Comparison to 3 μM VX-809 | EC50 (μM) | potency and efficacy versus VX-809 in SPQ profiling | Compound
> 30 µM | 75% | Equivalent to VX-809 | – | – | CCOC(=O)c1nnc2c(-c3ccc(OCC)cc3)c(C)nn2c1C [Compound C-17]
– | 0% | – | No effect | – | CCOC(=O)c1ccc2c(-c3ccc(Cl)c(Cl)c3)n[nH]c2n1 [Compound C-66.1]
0.58 µM | 0% | – | – | – | Cc1nn2c(C)c(C(=O)OC(C)(C)C)nnc2c1-c1ccc(Cl)c(Cl)c1 [Compound C-34]
– | -75% | – | – | – | CCOC(=O)c1nnc2c(-c3ccc(OC4CCCC4)cc3)c(C)nn2c1C [Compound C-73.1]
2 µM | 50% | Equivalent to VX-809 | – | – | Cc1nn2c(C)c(C(=O)OC(C)C)nnc2c1-c1ccc(Cl)c(Cl)c1 [Compound C-49]
– | 0% | – | No effect | – | CCOC(=O)c1nnc2c(-c3ccc(O)cc3)c(C)nn2c1C [Compound C-19]
– | 0% | – | No effect | – | CCOC(=O)c1nnc2c(-c3ccc(Cl)cc3)c(C)nn2c1C(=O)OCC [Compound C-28.1]
0.5 µM | 30% | Equivalent to VX-809 | – | – | Cc1nn2c(C)c(C(=O)OC3CCCC3)nnc2c1-c1ccc(Cl)c(Cl)c1 [Compound C-50]
– | 25% | – | – | – | O=C(O)c1ccc2c(-c3ccc(Cl)c(Cl)c3)n[nH]c2n1 [Compound C-66]
0.7 µM | 100% | Equivalent to VX-809 | – | – | Cc1nn2c(C)c(C(=O)Oc3ccccc3)nnc2c1-c1ccc(Cl)c(Cl)c1 [Compound C-35]
11 µM | 50% | Equivalent to VX-809 | – | – | Cc1nn2c(C)c(-c3nnco3)nnc2c1-c1ccc(Cl)c(Cl)c1 [Compound C-43]
2.5 µM | 50% | Equivalent to VX-809 | – | – | Cc1nn2c(C)c(C(=O)O)cnc2c1-c1ccc(Cl)c(Cl)c1 [Compound C-45]
– | 0% | – | No effect | – | Cc1nn2c(C)c(C(N)=O)nnc2c1-c1ccc(Cl)c(Cl)c1 [Compound C-29]
3.3 µM | 90% | 2-fold greater than VX-809 | – | – | Cc1nn2c(N)c(C(=O)O)nnc2c1-c1ccc(Cl)cc1 [Compound C-27]
6.7 µM | 125% | 2-fold greater than VX-809 | – | – | CCCCOc1ccc(-c2c(C)nn3c(C)c(C(=O)O)nnc23)cc1 [Compound C-54]
5.1 µM | 80% | Equivalent to VX-809 | – | – | CCS(=O)(=O)NC(=O)c1nnc2c(-c3ccc(Cl)c(Cl)c3)c(C)nn2c1C [Compound C-37]
2.3 µM | 90% | – | – | – | CCCOc1cc(-c2c(C)nn3c(C)c(C(=O)O)nnc23)ccc1Cl [Compound C-72]
– | 25% | – | – | – | O=C(O)c1ccc2c(-c3ccc(Cl)c(Cl)c3)noc2n1 [Compound C-68]
– | 0% | – | No effect | – | CCOc1ccc(-c2c(C)nn3c(C)c(C(=O)O)nnc23)cc1Cl [Compound C-60]
2 µM | 100% | 2.5-fold greater than VX-809 | – | – | CCCOC(=O)c1nnc2c(-c3ccc(Cl)cc3)c(C)nn2c1C [Compound C-20]

Reference: patent US9676779B2, “Small molecule CFTR correctors” (DISCOVERYBIOMED, INC., priority 2012, dated 2017)
